Source: patent US12612410B2 (CHILDREN'S HOSPITAL MEDICAL CENTER, priority 2020, dated 2026)

Assays:
FLT3 Autoinh. = biological target: T1, FLT3 Autoinh. (Homo sapiens, UniProt P36888); assay: DiscoverX KINOMEscan competition binding, FLT3 Autoinh.
T1 construct: host or cells: E. coli BL21-derived host (T7 phage) or HEK-293
T1 sequence (P36888 564-993 limits assumed): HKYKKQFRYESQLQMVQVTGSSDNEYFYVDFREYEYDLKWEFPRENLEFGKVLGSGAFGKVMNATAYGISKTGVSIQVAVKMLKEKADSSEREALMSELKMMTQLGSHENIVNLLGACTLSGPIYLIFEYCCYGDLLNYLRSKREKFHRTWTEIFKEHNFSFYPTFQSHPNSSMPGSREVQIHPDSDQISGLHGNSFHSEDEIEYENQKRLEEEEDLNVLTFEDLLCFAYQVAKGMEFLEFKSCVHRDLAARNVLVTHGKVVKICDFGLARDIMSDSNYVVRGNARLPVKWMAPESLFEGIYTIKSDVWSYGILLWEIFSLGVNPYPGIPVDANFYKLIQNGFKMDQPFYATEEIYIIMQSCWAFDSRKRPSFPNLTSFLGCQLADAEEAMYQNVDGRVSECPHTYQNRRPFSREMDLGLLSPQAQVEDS
Source text: Kinase binding data were obtained for various exemplary compounds prepared according to Examples 1-24 using the DiscoverX KINOMVIEscan® active site-directed competition binding site-directed assay protocol described below. […] As a result, the data report thermodynamic interaction affinities (Kd values), rather than IC50 values that are dependent on ATP concentrations. The assay uses a DNA-tagged version of the protein kinase, and an immobilized ligand bound to a solid support. Compounds that directly or indirectly prevent kinase binding to the immobilized ligand reduce the amount of kinase captured on the solid support, which is detected using an ultra-sensitive qPCR method. Affinity constants reported from the assay have been reported to be independent of the immobilized ligand used that is coupled to the solid support (See supplemental information in Fabian, M. A. et. al., (2005) Nat. Biotechnol. 23, 329-336; Wodicka, L. M. et. al., (2010) Chem. Biol. 17, 1241-1249.)
Kinase-tagged T7 phage strains were prepared in an E. coli host derived from the BL21 strain. E. coli were grown to log-phase and infected with T7 phage and incubated with shaking at 32° C. until lysis. The lysates were centrifuged and filtered to remove cell debris. The remaining kinases were produced in HEK-293 cells and subsequently tagged with DNA for qPCR detection. Streptavidin-coated magnetic beads were treated with biotinylated small molecule ligands for 30 minutes at room temperature to generate affinity resins for kinase assays. The liganded beads were blocked with excess biotin and washed with blocking buffer (SeaBlock (Pierce), 1% BSA, 0.05% Tween 20, 1 mM DTT) to remove unbound ligand and to reduce non-specific binding. Binding reactions were assembled by combining kinases, liganded affinity beads, and test compounds in 1× binding buffer (20% SeaBlock, 0.17×PBS, 0.05% Tween 20, 6 mM DTT). Test compounds were prepared as 111× stocks in 100% DMSO. Kds were determined using an 11-point 3-fold compound dilution series with three DMSO control points. All compounds for Kd measurements are distributed by acoustic transfer (non-contact dispensing) in 100% DMSO. The compounds were then diluted directly into the assays such that the final concentration of DMSO was 0.9%. All reactions were performed in polypropylene 384-well plates. Each was a final volume of 0.02 mL. The assay plates were incubated at room temperature with shaking for 1 hour and the affinity beads were washed with wash buffer (1×PBS, 0.05% Tween 20). The beads were then re-suspended in elution buffer (1×PBS, 0.05% Tween 20, 0.5 μM nonbiotinylated affinity ligand) and incubated at room temperature with shaking for 30 minutes. The kinase concentration in the eluates was measured by qPCR.
Binding constants (Kds) were calculated with a standard dose-response curve using the Hill equation. The Hill Slope was set to −1. Curves were fitted using a non-linear least square fit with the Levenberg-Marquardt algorithm.

FLT3 = biological target: T2, FLT3 (Homo sapiens, UniProt P36888); assay: DiscoverX KINOMEscan competition binding, FLT3; set-up: purchased Reaction Biology (RBC), HotSpot kinase assay
T2 sequence (P36888 27-993): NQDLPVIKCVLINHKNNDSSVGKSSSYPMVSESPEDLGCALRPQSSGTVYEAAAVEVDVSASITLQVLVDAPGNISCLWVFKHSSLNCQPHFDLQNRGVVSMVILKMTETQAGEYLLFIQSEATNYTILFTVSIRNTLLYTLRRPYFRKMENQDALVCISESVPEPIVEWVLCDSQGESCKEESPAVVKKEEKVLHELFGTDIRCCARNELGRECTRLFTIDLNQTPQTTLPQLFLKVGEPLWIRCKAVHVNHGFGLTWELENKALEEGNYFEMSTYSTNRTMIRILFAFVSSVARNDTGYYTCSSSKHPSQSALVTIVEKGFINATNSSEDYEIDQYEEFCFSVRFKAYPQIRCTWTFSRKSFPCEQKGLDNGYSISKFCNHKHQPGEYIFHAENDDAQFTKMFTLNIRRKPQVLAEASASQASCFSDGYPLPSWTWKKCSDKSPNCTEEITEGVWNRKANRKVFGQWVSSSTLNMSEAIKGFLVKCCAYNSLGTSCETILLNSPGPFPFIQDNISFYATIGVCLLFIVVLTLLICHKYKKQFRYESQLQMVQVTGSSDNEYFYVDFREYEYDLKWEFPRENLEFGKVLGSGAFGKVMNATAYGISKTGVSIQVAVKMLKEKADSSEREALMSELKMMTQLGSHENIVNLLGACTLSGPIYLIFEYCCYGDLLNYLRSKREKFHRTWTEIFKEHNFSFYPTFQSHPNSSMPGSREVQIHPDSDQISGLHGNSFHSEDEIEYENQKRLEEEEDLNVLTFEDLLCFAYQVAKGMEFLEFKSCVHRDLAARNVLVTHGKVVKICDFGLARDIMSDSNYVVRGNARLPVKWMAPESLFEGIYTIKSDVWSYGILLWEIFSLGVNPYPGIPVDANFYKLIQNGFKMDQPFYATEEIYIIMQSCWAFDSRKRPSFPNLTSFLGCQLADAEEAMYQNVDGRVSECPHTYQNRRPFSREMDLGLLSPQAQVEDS

Row | Structure (SMILES) | Kd (FLT3 Autoinh.) [nM] | Kd (FLT3) [nM]
1 | CC1(c2cn3c(-c4cccc(N[C@@H]5CCNC5)n4)cnc3cn2)CC1 [Compound 3, (R)-6-(6-(1-methylcyclopropyl)imidazo[1,2-a]pyrazin-3-yl)-N-(pyrrolidin-3-yl)pyridin-2-amine] | 1.4 | 0.056
2 | CC1(c2cn3c(-c4cccc(N[C@H]5CNCC56CC6)n4)cnc3cn2)CC1 [Compound 5, (R)-N-(6-(6-(1-methylcyclopropyl)imidazo[1,2-a]pyrazin-3-yl)pyridin-2-yl)-5-azaspiro[2.4]heptan-7-amine] | 0.88 | 0.027
3 | FC(F)(F)C1(c2cn3c(-c4cccc(N[C@@H]5CCNC5)n4)cnc3cn2)CC1 [Compound 10, (R)-N-(pyrrolidin-3-yl)-6-(6-(1-(trifluoromethyl)cyclopropyl)imidazo[1,2-a]pyrazin-3-yl)pyridin-2-amine] | 4.2 | 0.38
4 | CC(C)(O)c1cn2c(-c3cccc(N[C@@H]4CCCNC4)n3)cnc2cn1 [Compound 30, (R)-2-(3-(6-(piperidin-3-ylamino)pyridin-2-yl)imidazo[1,2-a]pyrazin-6-yl)propan-2-ol] | 22 | 1.5
5 | FC(F)(F)COc1cn2c(-c3cccc(N[C@@H]4CCNC4)n3)cnc2cn1 [Compound 38, (R)-N-(pyrrolidin-3-yl)-6-(6-(2,2,2-trifluoroethoxy)imidazo[1,2-a]pyrazin-3-yl)pyridin-2-amine] | 7.6 | 0.61

Further lines, results first:

Row | Kd (FLT3 Autoinh.) [nM] | Kd (FLT3) [nM] | Structure (SMILES)
6 | 1 | 0.049 | CC1(c2cn3c(-c4cccc(N[C@H]5CNC[C@@H]5F)n4)cnc3cn2)CC1 [Compound 1, N-((3S,4S)-4-fluoropyrrolidin-3-yl)-6-(6-(1-methylcyclopropyl)imidazo[1,2-a]pyrazin-3-yl)pyridin-2-amine]
7 | 3 | 0.42 | FC(F)c1cn2c(-c3cccc(N[C@H]4CNC[C@@H]4F)n3)cnc2cn1 [Compound 16, 6-(6-(difluoromethyl)imidazo[1,2-a]pyrazin-3-yl)-N-((3S,4S)-4-fluoropyrrolidin-3-yl)pyridin-2-amine]
8 | 3.6 | 0.13 | FC(F)c1cn2c(-c3cccc(N[C@H]4CNCC[C@@H]4F)n3)cnc2cn1 [Compound 25, 6-(6-(difluoromethyl)imidazo[1,2-a]pyrazin-3-yl)-N-((3S,4S)-4-fluoropiperidin-3-yl)pyridin-2-amine]
9 | 10 | 0.55 | CC(C)(O)c1cn2c(-c3cccc(N[C@H]4CNCC[C@@H]4F)n3)cnc2cn1 [Compound 31, 2-(3-(6-(((3S,4S)-4-fluoropiperidin-3-yl)amino)pyridin-2-yl)imidazo[1,2-a]pyrazin-6-yl)propan-2-ol]
10 | 1.9 | 0.062 | F[C@H]1CNC[C@@H]1Nc1cccc(-c2cnc3cnc(C4CC4)cn23)n1 [Compound 50, 6-(6-cyclopropylimidazo[1,2-a]pyrazin-3-yl)-N-((3S,4S)-4-fluoropyrrolidin-3-yl)pyridin-2-amine]
11 | 1.8 | 0.035 | Cn1cc(-c2cn3c(-c4cccc(N[C@H]5CNC[C@@H]5F)n4)cnc3cn2)cn1 [Compound 52, N-((3S,4S)-4-fluoropyrrolidin-3-yl)-6-(6-(1-methyl-1H-pyrazol-4-yl)imidazo[1,2-a]pyrazin-3-yl)pyridin-2-amine]
